A word on the GI50: it is the concentration at which growth is held to half of that of the control.

Holding throughout (format): cell-based
Test [1] relates to HCC827-SVD cells (human EGFR exon 20 insertion mutant D770_N771insSVD). Put plainly: Cell growth inhibition (CellTiter-Glo), HCC827-SVD. The note with it: 72 h, 3 days. In outline: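 HCC827 cells with endogenous EGFR knocked out and lentivirally expressing the insertion mutant (single clone) were seeded at 5000 cells/well in RPMI with 10% FBS. After overnight, compounds added; 3 days at 37 °C, then CellTiter-Glo luminescence.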
A general note: Cellular ATP, detected with luciferase, serves as a proxy for viable cell number.

Test [2] deals with HCC827 cells. Put plainly: Cell growth inhibition (CellTiter-Glo), HCC827. The note with it: Homo sapiens, 72 h, 3 days. Here is the method: 2. Cell Growth Inhibition for HCC827, HCC827-SVD, HCC827-ASV, HCC827-YVMA, and A431.
HCC827(ATCC), HCC827-SVD, HCC827-ASV, and HCC827-YVMA cells were seeded in 96-well plates at 5000 cells/well in 90 μL of RPMI growth medium containing 10% FBS and 1% Penicillin Streptomycin. A431 (ATCC) cells were seeded in 96-well plates at 5000 cells/well in 90 μL of DMEM growth medium containing 10% FBS and 1% Penicillin Streptomycin. Cells were incubated at 37° C. overnight and then administered with 10 μL 10× test compounds prepared in the growth medium at various concentrations. After administration of the compounds, cells were incubated at 37° C. for 3 days. Before the CellTiter-Glo assay, the plates were equilibrated at room temperature for approximately 30 minutes. 100 ul of CellTiter-Glo reagent (Promega) was added to each well. The plates were then incubated at room temperature for 10 minutes and luminescence was recorded by the EnSight® multimode plate reader (PerkinElmer). Table 7 listed selected compounds in cellular growth assay.

Test [3] deals with HCC827-YVMA cells (human ERBB2 exon20 insertion mutant A775_G776ins YVMA). Description: Cell growth inhibition (CellTiter-Glo), HCC827-YVMA. As to conditions: 72 h, HCC827-YVMA cells, 3 days, CellTiter-Glo, read-out: Cell growth inhibition, GI50 (nM) HCC827-YVMA. In outline:
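HCC827 cells transduced with lentiviral codon-optimized mutant (ERBB2 A775_G776insYVMA or EGFR V769_D770insASV), endogenous EGFR knocked out by CRISPR, single clone selected. Cells seeded overnight in RPMI/10% FBS, then exposed to serially diluted compounds at 37 °C for 3 days; viability read by CellTiter-Glo luminescence.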

Turning to `C=CC(=O)N1CCC(c2n[nH]c3ncnc(Nc4ccc(Oc5nc(-c6ccc(OC)nc6)cs5)cc4F)c23)CC1` [Compound 189, 1-(4-(4-((2-fluoro-4-((4-(6-methoxypyridin-3-yl)thiazol-2-yl)oxy)phenyl)amino)-1H-pyrazolo[3,4-d]pyrimidin-3-yl)piperidin-1-yl)prop-2-en-1-one], the GI50 in test [1] was 200 to 1000 nM; in test [2], over 1000 nM; in test [3], 200 to 1000 nM.

Turning to `C=CC(=O)N1CCC(c2c[nH]c3ncnc(Nc4ccc(OCc5cn6ccccc6n5)c(Cl)c4)c23)CC1` [Compound 102, 1-(4-(4-((3-chloro-4-(imidazo[1,2-a]pyridin-2-ylmethoxy)phenyl)amino)-7H-pyrrolo[2,3-d]pyrimidin-5-yl)piperidin-1-yl)prop-2-en-1-one], the GI50 in test [1] is 50 to 200 nM; in test [2] it was 50 to 200 nM; in test [3] it was under 50 nM.

Regarding `C=CC(=O)N1CCC(c2c[nH]c3ncnc(Nc4ccc(OCc5ccc(OC)cn5)c(Cl)c4)c23)CC1` [Compound 99, 1-(4-(4-((3-chloro-4-((5-methoxypyridin-2-yl)methoxy)phenyl)amino)-7H-pyrrolo[2,3-d]pyrimidin-5-yl)piperidin-1-yl)prop-2-en-1-one], the values for the concentration for 50% growth inhibition (GI50) in test [1], in test [2] and in test [3] were 50 to 200 nM, 50 to 200 nM and under 50 nM, respectively.

With `C=CC(=O)N1CCC(c2c[nH]c3ncnc(Nc4ccc(OCc5ccc(-c6ccccc6)nc5)cc4F)c23)CC1` [Compound 96, 1-(4-(4-((2-fluoro-4-((6-phenylpyridin-3-yl)methoxy)phenyl)amino)-7H-pyrrolo[2,3-d]pyrimidin-5-yl)piperidin-1-yl)prop-2-en-1-one], the GI50 in test [1] is over 1000 nM; in test [2], 200 to 1000 nM; in test [3] it was 200 to 1000 nM.

As to `C=CC(=O)N1CCC(c2c[nH]c3ncnc(Nc4ccc(OCc5ccncc5)c(Cl)c4)c23)CC1` [Compound 127, 1-(4-(4-((3-chloro-4-(pyridin-4-ylmethoxy)phenyl)amino)-7H-pyrrolo[2,3-d]pyrimidin-5-yl)piperidin-1-yl)prop-2-en-1-one], the GI50 in test [1] was under 50 nM; in test [2] it was 50 to 200 nM; in test [3] it was under 50 nM.

For `C=CC(=O)N1CCC(c2c[nH]c3ncnc(Nc4ccc(Oc5ccnc(N(C)C6CC(F)(F)C6)c5)cc4F)c23)CC1` [Compound 132, 1-(4-(4-((4-((2-((3,3-difluorocycloButyl)(methyl)amino)pyridin-4-yl)oxy)-2-fluorophenyl)amino)-7H-pyrrolo[2,3-d]pyrimidin-5-yl)piperidin-1-yl)prop-2-en-1-one], the values for the GI50 in test [1], in test [2] and in test [3] were 200 to 1000 nM, over 1000 nM and 50 to 200 nM, respectively.

As for `C=CC(=O)N1CCC(c2c[nH]c3ncnc(Nc4ccc(OCc5cccnn5)c(Cl)c4)c23)CC1` [Compound 120, 1-[4-[4-[3-chloro-4-(pyridazin-3-ylmethoxy)anilino]-7H-pyrrolo[2,3-d]pyrimidin-5-yl]-1-piperidyl]prop-2-en-1-one], the GI50 in test [1], in test [2] and in test [3] was under 50 nM each time.

`C=CC(=O)N1CCC(c2c[nH]c3ncnc(Nc4ccc(OCc5nccn5C)c(Cl)c4)c23)CC1` [Compound 94, 1-(4-(4-((3-chloro-4-((1-methyl-1H-imidazol-2-yl)methoxy)phenyl)amino)-7H-pyrrolo[2,3-d]pyrimidin-5-yl)piperidin-1-yl)prop-2-en-1-one]: the GI50 in test [1], in test [2] and in test [3] was 50 to 200 nM throughout.

`C=CC(=O)N1CCC(c2c[nH]c3ncnc(Nc4ccc(OCc5nc(C(F)(F)F)cs5)c(Cl)c4)c23)CC1` [Compound 103, 1-(4-(4-((3-chloro-4-((4-(trifluoromethyl)thiazol-2-yl)methoxy)phenyl)amino)-7H-pyrrolo[2,3-d]pyrimidin-5-yl)piperidin-1-yl)prop-2-en-1-one]: the GI50 in test [1], in test [2] and in test [3] was 50 to 200 nM throughout.

In the case of `C=CC(=O)N1CCC(c2n[nH]c3ncnc(Nc4ccc(Oc5ccnc(NC(=O)C6CCOCC6)c5)cc4F)c23)CC1` [Compound 194, N-(4-(4-((3-(1-acryloylpiperidin-4-yl)-1H-pyrazolo[3,4-d]pyrimidin-4-yl)amino)-3-fluorophenoxy)pyridin-2-yl)tetrahydro-2H-pyran-4-carboxamide], the GI50 in test [1] is 200 to 1000 nM; in test [2], over 1000 nM; in test [3], 200 to 1000 nM.

Take `C=CC(=O)N1CCC(c2c[nH]c3ncnc(Nc4ccc(Oc5ccnc(N6CCC(O)(C(F)(F)F)CC6)c5)cc4F)c23)CC1` [Compound 122, 1-(4-(4-((2-fluoro-4-((2-(4-hydroxy-4-(trifluoromethyl)piperidin-1-yl)pyridin-4-yl)oxy)phenyl)amino)-7H-pyrrolo[2,3-d]pyrimidin-5-yl)piperidin-1-yl)prop-2-en-1-one]: the GI50 is 200 to 1000 nM in test [1], over 1000 nM in test [2] and 200 to 1000 nM in test [3].

On to `C=CC(=O)N1CCC(c2c[nH]c3ncnc(Nc4ccc(OCc5ccc(Cl)cn5)c(Cl)c4)c23)CC1` [Compound 126, 1-(4-(4-((3-chloro-4-((5-chloropyridin-2-yl)methoxy)phenyl)amino)-7H-pyrrolo[2,3-d]pyrimidin-5-yl)piperidin-1-yl)prop-2-en-1-one], for which the GI50 in test [1], in test [2] and in test [3] was under 50 nM in each case.

Turning to `C=CC(=O)N1CCC(c2c[nH]c3ncnc(Nc4ccc(OC5CCCN(S(=O)(=O)c6ccccc6)C5)cc4F)c23)CC1` (stereo in doubt) [Compound 124, (S)-1-(4-(4-((2-fluoro-4-((1-(phenylsulfonyl)piperidin-3-yl)oxy)phenyl)amino)-7H-pyrrolo[2,3-d]pyrimidin-5-yl)piperidin-1-yl)prop-2-en-1-one], the figures for the GI50 in test [1], in test [2] and in test [3] were 200 to 1000 nM, 200 to 1000 nM and 50 to 200 nM, respectively.

As for `C=CC(=O)N1CCC(c2n[nH]c3ncnc(Nc4ccc(Oc5ccc(-c6cc(-c7ccccc7)[nH]c(=O)c6)nc5)c(Cl)c4F)c23)CC1` [Compound 170, 5-(4-((3-(1-acryloylpiperidin-4-yl)-1H-pyrazolo[3,4-d]pyrimidin-4-yl)amino)-2-chloro-3-fluorophenoxy)-6′-phenyl-[2,4′-bipyridin]-2′(1′H)-one], the GI50 in test [1] lay in the range of 50 to 200 nM; in test [2] it was 200 to 1000 nM; in test [3] it was 50 to 200 nM.

`C=CC(=O)N1CCC(c2c[nH]c3ncnc(Nc4ccc(Oc5ccn(Cc6cc(Oc7ccccc7)ccn6)n5)cc4F)c23)CC1` [Compound 151, 1-(4-(4-((2-fluoro-4-((1-((4-phenoxypyridin-2-yl)methyl)-1H-pyrazol-3-yl)oxy)phenyl)amino)-7H-pyrrolo[2,3-d]pyrimidin-5-yl)piperidin-1-yl)prop-2-en-1-one]: the GI50 in test [1] was 200 to 1000 nM; in test [2], over 1000 nM; in test [3], 50 to 200 nM.

As for `C=CC(=O)N1CCC(c2n[nH]c3ncnc(Nc4ccc(Oc5ccnc(NC(=O)C6CCCC6)c5)cc4F)c23)CC1` [Compound 193, N-(4-(4-((3-(1-acryloylpiperidin-4-yl)-1H-pyrazolo[3,4-d]pyrimidin-4-yl)amino)-3-fluorophenoxy)pyridin-2-yl)cyclopentanecarboxamide], the GI50 in test [1] was 50 to 200 nM; in test [2], over 1000 nM; in test [3], 50 to 200 nM.

`C=CC(=O)N1CCC(c2c[nH]c3ncnc(Nc4ccc(Oc5ccnc(-n6ccc(OC(C)C)n6)c5)cc4F)c23)CC1` [Compound 115, 1-(4-(4-((2-fluoro-4-((2-(3-isopropoxy-1H-pyrazol-1-yl)pyridin-4-yl)oxy)phenyl)amino)-7H-pyrrolo[2,3-d]pyrimidin-5-yl)piperidin-1-yl)prop-2-en-1-one]: the GI50 in test [1], in test [2] and in test [3] was 50 to 200 nM throughout.

With `C=CC(=O)N1CCC(c2c[nH]c3ncnc(Nc4ccc(OCc5ccnc(-n6ccc(OC)n6)c5)cc4F)c23)CC1` [Compound 92, 1-(4-(4-((2-fluoro-4-((2-(3-methoxy-1H-pyrazol-1-yl)pyridin-4-yl)methoxy)phenyl)amino)-7H-pyrrolo[2,3-d]pyrimidin-5-yl)piperidin-1-yl)prop-2-en-1-one], the GI50 in test [1], in test [2] and in test [3] was 50 to 200 nM throughout.

In the case of `C=CC(=O)N1CCC(c2c[nH]c3ncnc(Nc4ccc(Oc5ccnc(Nc6ccccc6)c5)cc4F)c23)CC1` [Compound 104, 1-(4-(4-((2-fluoro-4-((2-(phenylamino)pyridin-4-yl)oxy)phenyl)amino)-7H-pyrrolo[2,3-d]pyrimidin-5-yl)piperidin-1-yl)prop-2-en-1-one], the GI50 in test [1] is 50 to 200 nM; in test [2], 200 to 1000 nM; in test [3] it was under 50 nM.

For the origin of these results see patent US20240059698A1 (Accutar Biotechnology Inc., priority 2022, published 2024).
